Patent US7112333B1, “T cell epitopes of ryegrass pollen allergen” (Heska Corporation, priority 1994, dated 2006)

Test system: Lol p V reactive T Cells
Assay: T cell proliferation (tritiated thymidine) of Lol p V-primed T cell lines from grass-allergic patients
Format: cell-based, human
Excerpt: As discussed in Example 2, human T cell stimulating activity can be tested by culturing T cells obtained from an individual sensitive to Lol p V allergen, (i.e., an individual who has an IgE mediated immune response to Lol p V allergen) with a peptide derived from the allergen and determining whether proliferation of T cells occurs in response to the peptide as measured, e.g., by cellular uptake of tritiated thymidine. Stimulation indices for responses by T cells to peptides can be calculated as the maximum CPM in response to a peptide divided by the control CPM. A stimulation index (S.I.) equal to or greater than two times the background level is considered “positive”. Positive results are used to calculate the mean stimulation index for each peptide for the group of patients tested. In FIGS. 4 and 5 the mean T cell stimulation index is indicated above the bar. Preferred peptides of this invention comprise at least one T cell epitope and have a mean T cell stimulation index of greater than or equal to 2.0. […]
In addition, preferred peptides have a positivity index (P.I.) of at least about 60, more preferably about 100, more preferably at least about 200 and most preferably at least about 300. The positivity index for a peptide is determined by multiplying the mean T cell stimulation index by the percent of individuals, in a population of individuals sensitive to ryegrass pollen (e.g., preferably a population of at least 15 individuals, more preferably a population of at least 30 individuals or more), who have a T cell stimulation index to such peptide of at least 2.0. […]
In FIG. 5, the bar represents the cumulative rank of the peptide response in the group of patients tested as described in Example 2. To determine the cumulative rank, the 5 peptides with the highest S.I. in each individual were determined and assigned a numerical rank in descending order, with 5 representing the strongest response. […]
This amount of priming antigen was determined to be optimal for the activation of T cells from most grass-allergic patients. […]

Substance: LPIX-5: synthetic overlapping peptide derived from Lol p V, sequence in FIG. 2 (GFKAAVAAAANAPPADKFKI; Lolium perenne)
- percent of positive responses (patients with S.I. of at least 2) (group of 19 patients tested, FIG. 4): 26.3%

Substance: LPIX-20: synthetic overlapping peptide derived from Lol p V, sequence in FIG. 2 (AYETYKFIPSLEAAVKQAYA; Lolium perenne)
- ranked sum (cumulative rank of the peptide response) (19 patients, 5 peptides with highest S.I. per individual ranked, ranks summed, FIG. 5): highest ranked sum

Substance: rFel d I (Chain I): recombinant Fel d I chain I, control antigen in T cell assay [reference compound]
- T cell proliferative response of one patient (one allergic patient, results not shown): not
